Measured values as given in patent US12391648B2, “Pyridyloxy thioester derivative and preparation method therefor, herbicidal composition, and application” (Qingdao Kingagroot Chemical Compound Co., Ltd., priority 2018, dated 2025).

Experiments:
Format in all cases: in vivo
[1] = test system: ALS resistant Cyperus iria; assay: Post-emergence test experiment (Table 4), weed control; conditions: 600 g/ha active ingredient, plus water 450 kg/ha, after 3 weeks
Text: (§1) The activity level standard of harmful plants destruction (i. e. growth inhibition rate) is as follows: • Level 5: the growth inhibition rate is greater than 85%; • Level 4: the growth inhibition rate is equal to or greater than 60% and less than 85%; • Level 3: the growth inhibition rate is equal to or greater than 40% and less than 60%; • Level 2: the growth inhibition rate is equal to or greater than 20% and less than 40%; • Level 1: the growth inhibition rate is equal to or greater than 5% and less than 20%; • Level 0: the growth inhibition rate is less than 5%;
(§2) The above described growth inhibition rate is fresh weight inhibition rate.
(§3) Post-emergence test experiment: Monocotyledonous and dicotyledonous weed seeds and main crop seeds (i. e. wheat, corn, rice, soybean, cotton, oilseed, millet and sorghum.) were put into a plastic pot loaded with soil. Then covered with 0.5-2 cm soil, the seeds were allowed to grow in good greenhouse environment. The test plants were treated at 2-3 leaf stage 2 weeks after sowing. The test compounds of the invention were dissolved with acetone respectively, then added with tween-80, and using 1.5 liters per hectare of an emulsible concentrate of methyl oleate as a synergist, and diluted by certain amount of water to certain concentration. The solution was sprayed to the plants with a sprayer. Then the plants were cultured for 3 weeks in the greenhouse, and the experiment result of weed controlling effect after 3 weeks was listed in tables 3-4.
(§4) […] Echinochloa crusgalli and Cyperus iria were collected from Ningxia Hui Autonomous Region of China, which had evolved resistance to ALS inhibiting herbicides. • Control compound A:

[2] = test system: ALS resistant Echinochloa crusgalli; assay: as above; conditions: 600 g/ha active ingredient, plus water 450 kg/ha, after 3 weeks
Text: as §1, §2, §3, §4

Indica rice = assay: Post-emergence test experiment (Table 4), crop safety; conditions: 600 g/ha active ingredient, plus water 450 kg/ha, after 3 weeks
Text: as §1, §2, §3, §4

Japonica rice = assay: as above; conditions: 600 g/ha active ingredient, plus water 450 kg/ha, after 3 weeks
Text: as §1, §2, §3, §4

rice (japonica rice) = assay: Transplanted rice safety evaluation; conditions: 1000 g/ha, transplanted 3-leaf stage japonica rice, treated 5 days after transplantation, 21 days after treatment
Text: as §1
(§5) Transplanted rice safety evaluation and weed control effect evaluation in rice field:
In addition, the rice field soil that loaded into the 1/1,000,000 ha pot was leveled to keep water storage at 3-4 cm depth. The 3-leaf stage rice (japonica rice) was transplanted at 3 cm of transplanting depth the next day. The compound of the present invention was treated by the same way after 5 days of transplantation.
(§6) The fertility condition of Monochoria vaginalis 14 days and rice 21 days after the treatment of the compound of the invention with the naked eye.

Monochoria vaginalis [3] = assay: Weed control effect evaluation in rice field; conditions: 1000 g/ha, paddy water application at 0.5 leaf stage, 14 days after treatment, weeds resistant to pyrazosulfuron-ethyl and penoxsulam
Text: as §1, §5
Rice field soil was loaded into a 1/1,000,000 ha pot. The seeds of Monochoria vaginalis were sowed and gently covered with soil, then left to stand still in greenhouse in the state of 0.5-1 cm of water storage. It was kept at 3-4 cm of water storage thereafter. The weeds were treated by dripping the WP or SC water diluents prepared according to the common preparation method of the compounds of the present invention with pipette homogeneously to achieve specified effective amount when Monochoria vaginalis reached 0. 5 leaf stage.
as §6
Note: The seeds of Monochoria vaginalis were collected from Heilongjing Province of China.

Monochoria vaginalis [4] = assay: Post-emergence test experiment (Table 3, 1000 g/ha); conditions: post-emergence spray, after 3 weeks, fresh weight inhibition
Summary of the method: (§7)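 Activity graded levels 0-5 by fresh-weight inhibition (level 5 above 85%, level 0 below 5%), assessed 3 weeks after treatment. Plants grown in greenhouse pots were sprayed post-emergence at 2-3 leaves using acetone/tween-80 solutions with methyl oleate synergist (1.5 L/ha).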

Abutilon theophrasti = assay: as above; conditions: post-emergence spray, after 3 weeks, fresh weight inhibition
Summary of the method: as §7

Digitaria sanguinalis = assay: as above; conditions: post-emergence spray, after 3 weeks, fresh weight inhibition
Summary of the method: as §7

Galium spurium = assay: as above; conditions: post-emergence spray, after 3 weeks, fresh weight inhibition
Summary of the method: as §7

Setaria viridis = assay: as above; conditions: post-emergence spray, after 3 weeks, fresh weight inhibition
Summary of the method: as §7

Leptochloa chinensis = assay: as above; conditions: post-emergence spray, after 3 weeks, fresh weight inhibition
Summary of the method: as §7

`CSC(=O)C(C)Oc1nc(F)c(C)c(N)c1C` (stereo not drawn) [Compound 7] was tested, and the “ALS resistant Cyperus iria, activity level (growth inhibition rate)” value [1] was 5 (Level 5: the growth inhibition rate is greater than 85%), the “ALS resistant Echinochloa crusgalli, activity level (growth inhibition rate)” value [2] was 5 (Level 5: the growth inhibition rate is greater than 85%) and the “Indica rice, activity level (growth inhibition rate)” value (Indica rice) was 0 (Level 0: the growth inhibition rate is less than 5%). The “Japonica rice, activity level (growth inhibition rate)” value (Japonica rice) was 0 (Level 0: the growth inhibition rate is less than 5%), the “Rice, activity standard level 0-5 (safety)” value (“Rice … (safety)” below) (rice (japonica rice)) was 0 (Level 0: the growth inhibition rate is less than 5%) and the “Monochoria Vaginalis, activity standard level 0-5” value (Monochoria vaginalis [3]) was 5 (Level 5: the growth inhibition rate is greater than 85%). The “Activity level (growth inhibition rate) Monochoria Vaginalis” value (Monochoria vaginalis [4]) was 5 (Level 5: the growth inhibition rate is greater than 85%), the “Activity level (growth inhibition rate) Abutilon theophrasti” value (Abutilon theophrasti) was 5 (Level 5: the growth inhibition rate is greater than 85%) and the “Activity level (growth inhibition rate) Digitaria sanguinalis” value (Digitaria sanguinalis) was 5 (Level 5: the growth inhibition rate is greater than 85%). For the same compound, the “Activity level (growth inhibition rate) Galium spurium” value (Galium spurium) was 5 (Level 5: the growth inhibition rate is greater than 85%), the “Activity level (growth inhibition rate) Setaria viridis” value (Setaria viridis) was 5 (Level 5: the growth inhibition rate is greater than 85%) and the “Activity level (growth inhibition rate) Leptochloa chinensis” value (Leptochloa chinensis) was 5 (Level 5: the growth inhibition rate is greater than 85%).
`CCSC(=O)C(C)Oc1nc(F)c(Cl)c(N)c1Cl` (stereo not drawn) [Compound 66] was tested, and the “ALS resistant Cyperus iria, activity level (growth inhibition rate)” value [1] was 5 (Level 5: the growth inhibition rate is greater than 85%), the “ALS resistant Echinochloa crusgalli, activity level (growth inhibition rate)” value [2] was 5 (Level 5: the growth inhibition rate is greater than 85%) and the “Indica rice, activity level (growth inhibition rate)” value (Indica rice) was 0 (Level 0: the growth inhibition rate is less than 5%). The “Japonica rice, activity level (growth inhibition rate)” value (Japonica rice) was 0 (Level 0: the growth inhibition rate is less than 5%), the “Rice … (safety)” value (rice (japonica rice)) was 0 (Level 0: the growth inhibition rate is less than 5%) and the “Monochoria Vaginalis, activity standard level 0-5” value (Monochoria vaginalis [3]) was 5 (Level 5: the growth inhibition rate is greater than 85%). For the same compound, the “Activity level (growth inhibition rate) Monochoria Vaginalis” value (Monochoria vaginalis [4]) was 5 (Level 5: the growth inhibition rate is greater than 85%), the “Activity level (growth inhibition rate) Abutilon theophrasti” value (Abutilon theophrasti) was 5 (Level 5: the growth inhibition rate is greater than 85%) and the “Activity level (growth inhibition rate) Digitaria sanguinalis” value (Digitaria sanguinalis) was 5 (Level 5: the growth inhibition rate is greater than 85%). The “Activity level (growth inhibition rate) Galium spurium” value (Galium spurium) was 5 (Level 5: the growth inhibition rate is greater than 85%), the “Activity level (growth inhibition rate) Setaria viridis” value (Setaria viridis) was 5 (Level 5: the growth inhibition rate is greater than 85%) and the “Activity level (growth inhibition rate) Leptochloa chinensis” value (Leptochloa chinensis) was 5 (Level 5: the growth inhibition rate is greater than 85%).
In the case of `CCCCC(CC)CSC(=O)C(C)Oc1nc(F)c(Cl)c(N)c1Cl` (stereo not drawn) [Compound 74], the “ALS resistant Cyperus iria, activity level (growth inhibition rate)” value [1] is reported as 5 (Level 5: the growth inhibition rate is greater than 85%), the “ALS resistant Echinochloa crusgalli, activity level (growth inhibition rate)” value [2] is reported as 5 (Level 5: the growth inhibition rate is greater than 85%) and the “Indica rice, activity level (growth inhibition rate)” value (Indica rice) is reported as 0 (Level 0: the growth inhibition rate is less than 5%). The “Japonica rice, activity level (growth inhibition rate)” value (Japonica rice) was 0 (Level 0: the growth inhibition rate is less than 5%), the “Rice … (safety)” value (rice (japonica rice)) was 0 (Level 0: the growth inhibition rate is less than 5%) and the “Monochoria Vaginalis, activity standard level 0-5” value (Monochoria vaginalis [3]) was 5 (Level 5: the growth inhibition rate is greater than 85%). For the same compound, the “Activity level (growth inhibition rate) Monochoria Vaginalis” value (Monochoria vaginalis [4]) was 5 (Level 5: the growth inhibition rate is greater than 85%), the “Activity level (growth inhibition rate) Abutilon theophrasti” value (Abutilon theophrasti) was 5 (Level 5: the growth inhibition rate is greater than 85%) and the “Activity level (growth inhibition rate) Digitaria sanguinalis” value (Digitaria sanguinalis) was 5 (Level 5: the growth inhibition rate is greater than 85%). The “Activity level (growth inhibition rate) Galium spurium” value (Galium spurium) was 5 (Level 5: the growth inhibition rate is greater than 85%), the “Activity level (growth inhibition rate) Setaria viridis” value (Setaria viridis) was 5 (Level 5: the growth inhibition rate is greater than 85%) and the “Activity level (growth inhibition rate) Leptochloa chinensis” value (Leptochloa chinensis) was 5 (Level 5: the growth inhibition rate is greater than 85%).
In the case of `CC(Cl)CCSC(=O)C(C)Oc1nc(F)c(Cl)c(N)c1Cl` (stereo not drawn) [Compound 77], the “ALS resistant Cyperus iria, activity level (growth inhibition rate)” value [1] is reported as 5 (Level 5: the growth inhibition rate is greater than 85%), the “ALS resistant Echinochloa crusgalli, activity level (growth inhibition rate)” value [2] is reported as 5 (Level 5: the growth inhibition rate is greater than 85%) and the “Indica rice, activity level (growth inhibition rate)” value (Indica rice) is reported as 0 (Level 0: the growth inhibition rate is less than 5%). For the same compound, the “Japonica rice, activity level (growth inhibition rate)” value (Japonica rice) was 0 (Level 0: the growth inhibition rate is less than 5%), the “Rice … (safety)” value (rice (japonica rice)) was 0 (Level 0: the growth inhibition rate is less than 5%) and the “Monochoria Vaginalis, activity standard level 0-5” value (Monochoria vaginalis [3]) was 5 (Level 5: the growth inhibition rate is greater than 85%). For the same compound, the “Activity level (growth inhibition rate) Monochoria Vaginalis” value (Monochoria vaginalis [4]) was 5 (Level 5: the growth inhibition rate is greater than 85%), the “Activity level (growth inhibition rate) Abutilon theophrasti” value (Abutilon theophrasti) was 5 (Level 5: the growth inhibition rate is greater than 85%) and the “Activity level (growth inhibition rate) Digitaria sanguinalis” value (Digitaria sanguinalis) was 5 (Level 5: the growth inhibition rate is greater than 85%). The “Activity level (growth inhibition rate) Galium spurium” value (Galium spurium) was 5 (Level 5: the growth inhibition rate is greater than 85%), the “Activity level (growth inhibition rate) Setaria viridis” value (Setaria viridis) was 5 (Level 5: the growth inhibition rate is greater than 85%) and the “Activity level (growth inhibition rate) Leptochloa chinensis” value (Leptochloa chinensis) was 5 (Level 5: the growth inhibition rate is greater than 85%).
`CC(Oc1nc(F)c(Cl)c(N)c1Cl)C(=O)SCCCC(F)(F)F` (stereo not drawn) [Compound 79] was tested, and the “ALS resistant Cyperus iria, activity level (growth inhibition rate)” value [1] was 5 (Level 5: the growth inhibition rate is greater than 85%), the “ALS resistant Echinochloa crusgalli, activity level (growth inhibition rate)” value [2] was 5 (Level 5: the growth inhibition rate is greater than 85%) and the “Indica rice, activity level (growth inhibition rate)” value (Indica rice) was 0 (Level 0: the growth inhibition rate is less than 5%). For the same compound, the “Japonica rice, activity level (growth inhibition rate)” value (Japonica rice) was 0 (Level 0: the growth inhibition rate is less than 5%), the “Rice … (safety)” value (rice (japonica rice)) was 0 (Level 0: the growth inhibition rate is less than 5%) and the “Monochoria Vaginalis, activity standard level 0-5” value (Monochoria vaginalis [3]) was 5 (Level 5: the growth inhibition rate is greater than 85%). The “Activity level (growth inhibition rate) Monochoria Vaginalis” value (Monochoria vaginalis [4]) was 5 (Level 5: the growth inhibition rate is greater than 85%), the “Activity level (growth inhibition rate) Abutilon theophrasti” value (Abutilon theophrasti) was 5 (Level 5: the growth inhibition rate is greater than 85%) and the “Activity level (growth inhibition rate) Digitaria sanguinalis” value (Digitaria sanguinalis) was 5 (Level 5: the growth inhibition rate is greater than 85%). The “Activity level (growth inhibition rate) Galium spurium” value (Galium spurium) was 5 (Level 5: the growth inhibition rate is greater than 85%), the “Activity level (growth inhibition rate) Setaria viridis” value (Setaria viridis) was 5 (Level 5: the growth inhibition rate is greater than 85%) and the “Activity level (growth inhibition rate) Leptochloa chinensis” value (Leptochloa chinensis) was 5 (Level 5: the growth inhibition rate is greater than 85%).
`CC(Oc1nc(F)c(Cl)c(N)c1Cl)C(=O)SC1CCCCC1` (stereo not drawn) [Compound 82] was tested, and the “ALS resistant Cyperus iria, activity level (growth inhibition rate)” value [1] was 5 (Level 5: the growth inhibition rate is greater than 85%), the “ALS resistant Echinochloa crusgalli, activity level (growth inhibition rate)” value [2] was 5 (Level 5: the growth inhibition rate is greater than 85%) and the “Indica rice, activity level (growth inhibition rate)” value (Indica rice) was 0 (Level 0: the growth inhibition rate is less than 5%). For the same compound, the “Japonica rice, activity level (growth inhibition rate)” value (Japonica rice) was 0 (Level 0: the growth inhibition rate is less than 5%), the “Rice … (safety)” value (rice (japonica rice)) was 0 (Level 0: the growth inhibition rate is less than 5%) and the “Monochoria Vaginalis, activity standard level 0-5” value (Monochoria vaginalis [3]) was 5 (Level 5: the growth inhibition rate is greater than 85%). For the same compound, the “Activity level (growth inhibition rate) Monochoria Vaginalis” value (Monochoria vaginalis [4]) was 5 (Level 5: the growth inhibition rate is greater than 85%), the “Activity level (growth inhibition rate) Abutilon theophrasti” value (Abutilon theophrasti) was 5 (Level 5: the growth inhibition rate is greater than 85%) and the “Activity level (growth inhibition rate) Digitaria sanguinalis” value (Digitaria sanguinalis) was 5 (Level 5: the growth inhibition rate is greater than 85%). The “Activity level (growth inhibition rate) Galium spurium” value (Galium spurium) was 5 (Level 5: the growth inhibition rate is greater than 85%), the “Activity level (growth inhibition rate) Setaria viridis” value (Setaria viridis) was 5 (Level 5: the growth inhibition rate is greater than 85%) and the “Activity level (growth inhibition rate) Leptochloa chinensis” value (Leptochloa chinensis) was 5 (Level 5: the growth inhibition rate is greater than 85%).
